Assay results reported in patent EP1919471B1, “(INDOL-3-YL)-HETEROCYCLE DERIVATIVES AS AGONISTS OF THE CANNABINOID CB1 RECEPTOR” (Merck Sharp & Dohme B.V., priority 2005, dated 2007).

How the values were obtained:
human CB1 receptor = biological target: T1, human CB1 receptor (Homo sapiens, UniProt P21554); assay: In-vitro determination of efficacy and potency at the human CB1 receptor expressed in CHO cells (luciferase reporter assay); type: cell-based; conditions: CHO cells expressing the human CB1 receptor and a luciferase reporter gene; 5 h at 37 °C
T1 construct: expressed in transfected cells; host or cells: CHO (Chinese Hamster Ovary) cells
T1 sequence (P21554 whole entry): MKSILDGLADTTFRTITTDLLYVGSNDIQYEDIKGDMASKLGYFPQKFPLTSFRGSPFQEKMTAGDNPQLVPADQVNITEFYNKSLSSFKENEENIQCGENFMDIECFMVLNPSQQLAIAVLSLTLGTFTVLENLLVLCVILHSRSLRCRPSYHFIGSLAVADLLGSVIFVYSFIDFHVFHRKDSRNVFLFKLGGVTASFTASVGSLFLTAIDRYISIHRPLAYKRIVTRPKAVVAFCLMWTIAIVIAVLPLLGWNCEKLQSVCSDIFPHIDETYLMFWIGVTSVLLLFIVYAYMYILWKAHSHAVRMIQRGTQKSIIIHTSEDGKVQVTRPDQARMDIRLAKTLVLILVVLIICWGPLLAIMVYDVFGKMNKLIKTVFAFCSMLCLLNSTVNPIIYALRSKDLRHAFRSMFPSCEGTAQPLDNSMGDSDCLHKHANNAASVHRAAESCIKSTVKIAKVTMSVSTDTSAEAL
Description: Methods to determine receptor binding as well as in vitro biological activity of cannabinoid receptor modulators are well known in the art. In general, expressed receptor is contacted with the compound to be tested and binding or stimulation or inhibition of a functional response is measured. To measure a functional response isolated DNA encoding the CB1 receptor gene, preferably the human receptor, is expressed in suitable host cells. Such a cell might be the Chinese Hamster Ovary cell, but other cells are also suitable. Preferably the cells are of mammalian origin. Methods to construct recombinant CB1 expressing cell lines are well known in the art (Sambrook et al, Molecular Cloning: a Laboratory Manual, Cold Spring Harbor Laboratory Press, Cold Spring Harbor, latest edition). Expression of the receptor is attained by expression of the DNA encoding the desired protein. Techniques for ligation of additional sequences and construction of suitable expression systems are all, by now, well known in the art. Portions or all of the DNA encoding the desired protein can be constructed synthetically using standard solid phase techniques, preferably to include restriction sites for ease of ligation. Suitable control elements for transcription and translation of the included coding sequence can be provided to the DNA coding sequences. As is well known, expression systems are now available which are compatible with a wide variety of hosts, including prokaryotic hosts such as bacteria and eukaryotic hosts such as yeast, plant cells, insect cells, mammalian cells, avian cells and the like. Cells expressing the receptor are then contacted with the test compound to observe binding, or stimulation or inhibition of a functional response. Alternatively isolated cell membranes containing the expressed CB1 (or CB2) receptor may be used to measure binding of compound. For measurement of binding radioactively or fluorescently labelled compounds may be used. The most widely used radiolabelled cannabinoid probe is [^3H]CP55940, which has approximately equal affinity for CB1 and CB2 binding sites. Functional CB1 agonist activity may be measured by determining the second messenger response, such as for example measurement of receptor mediated changes in cAMP or MAPkinase pathways. Thus, such a method involves expression of the CB1 receptor on the cell surface of a host cell and exposing the cell to the test compound. The second messenger response is then measured. The level of second messenger will be reduced or increased, depending on the effect of the test compound upon binding to the receptor.
In-vitro determination of efficacy and potency at the human CB1 receptor expressed in CHO cells
Chinese Hamster Ovary (CHO) cells expressing the human CB1 receptor and a luciferase reporter gene were suspended in phenol red/serum free DMEM/F-12 nut mix containing penicillin/streptomycin (50U/50 µg/ml) and fungizone (1 µg/ml) and seeded into 96 well plates at a density of 3 x 10^4 cells per well (100 µl final volume). Cells were incubated overnight (approx. 18 h at 37°C, 5% CO2/95% air) prior to assay. The test compound (10 mM solution in dimethylsulfoxide) was diluted in F12 Nut Mix to give a range of stock solutions from 0.11 mM to 0.11 nM. The stock solutions (10 µl) were added directly to the relevant wells. The plates were incubated at 37 °C for 5 h to allow agonist-induced expression of the luciferase enzyme. Under subdued light, LucLite substrate (Packard; reconstituted as per manufacturer's instructions; 100 µl) was added to each well. Plates were covered with Top Seal and then incubated at room temperature for 5 minutes before counting on the Packard TopCount (single photon counting, 0.01 minute count time, 5 minute count delay). A "best-fit" curve was fitted by a minimum sum of squares method to the plot of counts per second (CPS) against compound concentration (M) to obtain an EC50 value. […]

Mice = assay: Formalin Paw Test in Mice; type: in vivo; conditions: Mus musculus, iv, administered intravenously 5 minutes before 5% formalin, Phase 2 = between 20 and 30 min after formalin injection, read-out: ED50, inhibition of the nociceptive behaviour of Phase 2
Description: Formalin Paw Test in Mice
Four - six groups of six mice were treated with vehicle and one of four to five doses of the test compound (typically between 0.03, 0.1, 3 and 10 µmol/kg), administered intravenously into the tail vein (vehicle: 10% Tween-80 in saline; injection volume 10 ml/kg). This injection was followed 5 minutes later by 20 µl of 5% formalin, which was administered sub-cutaneously to the dorsum of the left hind paw. Immediately after formalin administration the animal was placed in a test chamber and data acquisition, using a detection device (Automated Nociception Analyser (ANA); Department of Anesthesiology, University of California, San Diego), was started, independently for each chamber. The nociceptive behaviour was measured as the number of counts (licking, lifting, biting and flinching actions) detected within the two phases of nociception (Yaksh et al, 2001). The nociceptive behaviour between 0 and 5 min after formalin injection (Phase 1) and between 20 and 30 min after formalin injection (Phase 2) was recorded and number of counts for each mouse, compared to the mean number of counts for the vehicle treated animals, was calculated. Once values for each mouse were obtained, the mean and s.e.m. were calculated for each treatment group. The percent inhibition data were then used to calculate ED50 values for Phase 1 and Phase 2.

**Q.** Which EC50 (human CB1 receptor) does the source give for OCC1CCN(Cc2nnc(-c3cn(CC4CCCCC4)c4c(Cl)cccc34)o2)CC1 [Example 17, 7-Chloro-3-[(5-{4-[hydroxymethyl]piperidin-1-yl}methyl)-([1,3,4]-oxadiazol-2-yl)]-1-(cyclohexyl)methyl-1H-indole] here?
**A.** 0.126 µM

**Q.** “7-Ethyl-3-[(5-{N-[4-(carboxamido)methyl]piperidin-1-yl}methyl)-([1,2,4]-thiadiazol-3-yl)]-1-(tetrahydropyran-4-yl)methyl-1H-indole [Example 12]” was tested. Which pEC50 (human CB1 receptor) did it give?
**A.** 6.9

**Q.** What does the source list for CCc1cccc2c(-c3nsc(CN4CCC(C(=O)NCCO)CC4)n3)cn(CC3CCOCC3)c12 [Example 10A, 7-Ethyl-3-[(5-{4-[(N-{2-hydroxy}ethyl)carboxamido]piperidin-1-yl}methyl)-([1,2,4]-thiadiazol-3-yl)]-1-(tetrahydropyran-4-yl)methyl-1H-indole]?
**A.** EC50 (human CB1 receptor): 0.0126 µM; ED50 (Mice): < 5 µmol/kg

**Q.** O=C(NCCO)[C@H]1CCCN(Cc2nc(-c3cn(CC4CCS(=O)(=O)CC4)c4c(Cl)cccc34)ns2)C1 [Example 13, (S)-7-Chloro-3-[(5-{[3-N-(2-hydroxyethyl)carboxamido]piperidin-1-yl}methyl)-([1,2,4]-thiadiazol-3-yl)]-1-(1,1-dioxo-hexahydrothiopyran-4-yl)methyl-1H-indole] was tested. Which pEC50 (human CB1 receptor) did it give?
**A.** 6.9

**Q.** How did the EC50 (human CB1 receptor) turn out when CN(C)S(=O)(=O)N(CCO)Cc1nc(-c2cn(CC3CCOCC3)c3c(Cl)cccc23)no1 [Example 25, 7-Chloro-3-[(5-{N-(N',N'-dimethylsulfonamido)}-(N-{2-hydroxy}ethylamino)methyl)-([1,2,4]-oxadiazol-3-yl)]-1-(tetrahydropyran-4-yl)methyl-1H-indole] was run?
**A.** 0.1 µM

**Q.** COCCN(Cc1nc(-c2cn(CC3CCOCC3)c3c(Cl)cccc23)ns1)S(C)(=O)=O [Example 7, 7-Chloro-3-({5-[(N-{2-methoxy}ethyl)-(N-{methylsulfonyl})amino]methyl}-([1,2,4]-thiadiazol-3-yl))-1-(tetrahydropyran-4-yl)methyl-1H-indole] was tested. Which EC50 (human CB1 receptor) did it give?
**A.** 0.0794 µM

**Q.** For CCc1cccc2c(-c3nsc(CN(C)CC(N)=O)n3)cn(CC3CCOCC3)c12 [Example 9, 7-Ethyl-3-[(5-{[N-(carboxamido)methyl]-N-methylamino}methyl)-([1,2,4]-thiadiazol-3-yl)]-1-(tetrahydropyran-4-yl)methyl-1H-indole], which EC50 (human CB1 receptor) is on record?
**A.** 0.126 µM

**Q.** How did the pEC50 (human CB1 receptor) turn out when CS(=O)(=O)N1CCC[C@H]1c1nnc(-c2cn(CC3CCOCC3)c3c(Cl)cccc23)o1 [Example 18, (S)-7-Chloro-3-[(5-{N-methylsulfonyl}pyrrolidin-2-yl)-([1,3,4]-oxadiazol-2-yl)]-1-(tetrahydropyran-4-yl)methyl-1H-indole] was run?
**A.** 7.2

**Q.** Which EC50 (human CB1 receptor) does the source give for CN(CC(=O)NCC(N)=O)Cc1nc(-c2cn(CC3CCOCC3)c3c(Cl)cccc23)no1 [Example 20A] here?
**A.** 0.0316 µM

**Q.** For CN(CC(=O)NCCO)Cc1nc(-c2cn(CC3CCOCC3)c3c(Cl)cccc23)no1 [Example 20B, 7-Chloro-3-({5-[(N-{[N-(2-hydroxyethyl)]carboxamido}methyl)-N-methylamino]methyl}-[1,2,4]oxadiazol-3-yl)-1-(tetrahydropyran-4-yl)methyl-1H-indole], which EC50 (human CB1 receptor) is on record?
**A.** 0.0501 µM

**Q.** How did the EC50 (human CB1 receptor) turn out when COCC(=O)NCc1nc(-c2cn(CC3CCOCC3)c3c(Cl)cccc23)no1 [Example 24, 7-Chloro-3-[(5-{[N-methoxymethylformyl]amino}methyl)-([1,2,4]-oxadiazol-3-yl)]-1-(tetrahydropyran-4-yl)methyl-1H-indole] was run?
**A.** 0.2 µM

**Q.** Which results are given for O=C(NCCO)C1CCN(Cc2nc(-c3cn(CC4CCOCC4)c4c(Cl)cccc34)no2)CC1 [Example 19, 7-Chloro-3-[(5-{4-[(N-{2-hydroxy}ethyl)carboxamido]piperidin-1-yl}methyl)-([1,2,4]oxadiazol-3-yl)]-1-(tetrahydropyran-4-yl)methyl-1H-indole]?
**A.** EC50 (human CB1 receptor): 0.0794 µM; ED50 (Mice): < 5 µmol/kg

**Q.** Which EC50 (human CB1 receptor) does the source give for CN(CC(N)=O)Cc1nc(-c2cn(CC3CCOCC3)c3c(Cl)cccc23)no1 [Example 20, 7-Chloro-3-[(5-{[N-(carboxamido)methyl]-N-methylamino}methyl)-([1,2,4]oxadiazol-3-yl)]-1-(tetrahydropyran-4-yl)methyl-1H-indole] here?
**A.** 0.0398 µM

**Q.** What about the ED50 (Mice) of the same compound?
**A.** < 5 µmol/kg

**Q.** Which results are given for CS(=O)(=O)N(CCO)Cc1nc(-c2cn(CC3CCOCC3)c3c(Cl)cccc23)ns1 [Example 15, 7-Chloro-3-({5-[(N-{2-hydroxy}ethyl)-(N-{methylsulfonyl})amino]methyl}-([1,2,4]-thiadiazol-3-yl))-1-(tetrahydropyran-4-yl)methyl-1H-indole]?
**A.** EC50 (human CB1 receptor): 0.02 µM; ED50 (Mice): < 5 µmol/kg
